# Results reported in PubChem BioAssay (NCI).
#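 Each compound was tested at five concentrations against cells in 96-well plates for 48 hours. The concentration for 50% growth inhibition is given as GI50. TGI marks complete inhibition of growth.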
# Legend:
# Test in all cases: inhibition of tumour cell growth, NCI panel, 48 h
# HS 578T breast = test system: HS 578T breast
# PC-3 prostate = test system: PC-3 prostate
# BT-549 breast = test system: BT-549 breast
# M14 melanoma = test system: M14 melanoma
# SW-620 colon = test system: SW-620 colon
# OVCAR-8 ovarian = test system: OVCAR-8 ovarian
# SR leukemia = test system: SR leukemia
# A498 renal = test system: A498 renal
# SK-MEL-2 melanoma = test system: SK-MEL-2 melanoma
# 786-0 renal = test system: 786-0 renal
# MCF7 breast = test system: MCF7 breast
# LOX IMVI melanoma = test system: LOX IMVI melanoma
# MOLT-4 leukemia = test system: MOLT-4 leukemia
# HT29 colon = test system: HT29 colon
# U251 CNS = test system: U251 CNS
# SNB-75 CNS = test system: SNB-75 CNS
# RPMI-8226 leukemia = test system: RPMI-8226 leukemia
# HCC-2998 colon = test system: HCC-2998 colon
# DU-145 prostate = test system: DU-145 prostate
# A549 NSCLC = test system: A549 NSCLC
# NCI/ADR-RES ovarian = test system: NCI/ADR-RES ovarian
# K-562 leukemia = test system: K-562 leukemia
# UO-31 renal = test system: UO-31 renal
# NCI-H226 lung = test system: NCI-H226 lung
# CCRF-CEM leukemia = test system: CCRF-CEM leukemia
# MDA-MB-231 breast = test system: MDA-MB-231 breast
# EKVX NSCLC = test system: EKVX NSCLC
# MDA-MB-435 = test system: MDA-MB-435
# SF-295 CNS = test system: SF-295 CNS
compound,measurement,setting,value
c1ccc(-c2nc([P+](c3ccccc3)(c3ccccc3)c3ccccc3)c(N3CCOCC3)o2)cc1,GI50,HS 578T breast,1.62 µM
same,TGI,HS 578T breast,11.7 µM
same,GI50,PC-3 prostate,0.45 µM
same,TGI,PC-3 prostate,5.77 µM
same,GI50,BT-549 breast,0.523 µM
same,TGI,BT-549 breast,6.77 µM
same,GI50,M14 melanoma,1.56 µM
same,TGI,M14 melanoma,10.9 µM
same,GI50,SW-620 colon,0.926 µM
same,TGI,SW-620 colon,20.1 µM
same,GI50,OVCAR-8 ovarian,1.18 µM
same,TGI,OVCAR-8 ovarian,10.2 µM
same,GI50,SR leukemia,0.655 µM
same,TGI,SR leukemia,20 µM
same,GI50,A498 renal,1.71 µM
same,TGI,A498 renal,5.58 µM
same,GI50,SK-MEL-2 melanoma,0.88 µM
same,TGI,SK-MEL-2 melanoma,4.03 µM
same,GI50,786-0 renal,3.92 µM
same,TGI,786-0 renal,28.8 µM
same,GI50,MCF7 breast,0.388 µM
same,TGI,MCF7 breast,4.15 µM
same,GI50,LOX IMVI melanoma,1.49 µM
same,TGI,LOX IMVI melanoma,3.9 µM
same,GI50,MOLT-4 leukemia,2.26 µM
same,TGI,MOLT-4 leukemia,14.8 µM
same,GI50,HT29 colon,0.715 µM
same,TGI,HT29 colon,> 33.3 µM
same,GI50,U251 CNS,0.483 µM
same,TGI,U251 CNS,11.9 µM
same,GI50,SNB-75 CNS,0.393 µM
same,TGI,SNB-75 CNS,2.73 µM
same,GI50,RPMI-8226 leukemia,0.295 µM
same,TGI,RPMI-8226 leukemia,1.43 µM
same,GI50,HCC-2998 colon,1.04 µM
same,TGI,HCC-2998 colon,12.4 µM
same,GI50,DU-145 prostate,1.18 µM
same,TGI,DU-145 prostate,12.9 µM
same,GI50,A549 NSCLC,2.83 µM
same,TGI,A549 NSCLC,48.6 µM
same,GI50,NCI/ADR-RES ovarian,> 76.4 µM
same,TGI,NCI/ADR-RES ovarian,> 100 µM
same,GI50,K-562 leukemia,0.439 µM
same,TGI,K-562 leukemia,> 74.8 µM
same,GI50,UO-31 renal,6.37 µM
same,TGI,UO-31 renal,25.7 µM
same,GI50,NCI-H226 lung,1.98 µM
same,TGI,NCI-H226 lung,8.5 µM
same,GI50,CCRF-CEM leukemia,1.13 µM
same,TGI,CCRF-CEM leukemia,36.6 µM
same,GI50,MDA-MB-231 breast,0.92 µM
same,TGI,MDA-MB-231 breast,7.12 µM
same,GI50,EKVX NSCLC,2.31 µM
same,TGI,EKVX NSCLC,29.5 µM
same,GI50,MDA-MB-435,0.445 µM
same,TGI,MDA-MB-435,4.55 µM
same,GI50,SF-295 CNS,2.09 µM
same,TGI,SF-295 CNS,5.54 µM
